System: 16S RNA versus modified 16S RNA (5IU1495)
Assay: Dissociation rate of binary ligand complexes versus relative energy (capillary exit-skimmer voltage), ESI-FT-ICR MS
Assay type: binding, E. coli
Settings: Example 8: 2-deoxystreptamine 100 μM, RNAs 2.5 μM each
Method: The following examples illustrate preferred embodiments of the present invention using mass spectrometry. Experiments were performed using a 7.0 Tesla Fourier transform ion cyclotron resonance (FT-ICR) mass spectrometer with an electrospray ionization source operating in the negative mode. A −3000 V difference was employed between the spray tip and the inlet capillary to generate the electrospray. Samples were introduced at a flow rate of 1.5 uL/min using a Harvard syringe pump and a 50 uL glass syringe. The desolvation of the electrospray droplets was aided by a flow of countercurrent gas at 1 L/min. Ions were accumulated for 1.0 sec in an intermediate hexapole ion storage region at 1.0×10^−5 mbar. Following transfer to the FT-ICR analysis cell, the image current was measured over a mass range of 500-4000 m/z. Typically, a total of 32 transients containing 512 kbytes were summed prior to Fourier transformation. […]
An aqueous solution containing 50 mM ammonium acetate buffer (pH 7.0), 33% isopropyl alcohol, 2-deoxystreptamine (100 μM), 16S RNA (2.5 μM) and a modified 16S RNA (2.5 μM) was prepared. […] The peaks were integrated and ion abundances determined for each of the separate runs. Fractions of 16S+2-DOS and 5IU1495+2-DOS complexes were determined and plotted according to relative energy as depicted in FIG. 6. […]

N[C@@H]1C[C@H](N)[C@@H](O)C(O)[C@H]1O (some centres unmarked) [2-deoxystreptamine]
Difference in dissociation rate (slope) between the 16S and 5IU1495 systems, first region (1 to 2 relative energy units (FIG. 6)): about 25% | Dissociation rate (slope) of 16S versus 5IU1495 systems, higher energy region (2 to 4 relative energy units (FIG. 6)): substantially equal
